# Experimental data: PMC10967822, “Antimicrobial Indole-3-Carboxamido-Polyamine Conjugates Target Bacterial Membranes and Are Antibiotic Potentiators” (Biomolecules, 2024)
# “And” between values parts separate entries of the source, which are not always exact repeats. Equal entries are not always repeated. Where two headings read alike, the source gives them in different places. Marks after values point to notes of the source that are not given here.
# Tests used:
# [1] = test system: human red blood cells; conditions: cited from earlier work
# [2] = test system: E. coli ATCC 25922; assay: Erythromycin potentiation against E. coli; type: cell-based, Escherichia coli; conditions: erythromycin at 2 µg/mL (2.7 µM); for Erythro/Ec: concentration required to restore erythromycin activity (combination MIC): mean n = 3
# Source text: (§1) These measurements were independently repeated in triplicate.
# [3] = test system: A. baumannii ATCC 19606; set-up: method as in Cadelis et al. [13]; conditions: ref Cadelis et al. [13]; cited from earlier work
# [4] = test system: HEK293 human embryonic kidney cells; set-up: method as in Cadelis et al. [13]; conditions: ref Cadelis et al. [13], read-out: Cytotoxicity IC50; cited from earlier work
# [5] = test system: C. albicans ATCC 90028; set-up: method as in Cadelis et al. [13]; conditions: ref Cadelis et al. [13]; cited from earlier work
# [6] = test system: K. pneumoniae ATCC 700603; set-up: method as in Cadelis et al. [13]; conditions: ref Cadelis et al. [13]; cited from earlier work
# [7] = test system: P. aeruginosa ATCC 27853; conditions: cited from earlier work
# [8] = test system: C. neoformans ATCC 208821; set-up: method as in Cadelis et al. [13]; conditions: ref Cadelis et al. [13]; cited from earlier work
# [9] = test system: E. coli ATCC 25922; set-up: method as in Cadelis et al. [13]; conditions: ref Cadelis et al. [13]; cited from earlier work
# [10] = test system: MRSA ATCC 43300; set-up: method as in Cadelis et al. [13]; conditions: ref Cadelis et al. [13]; cited from earlier work
# [11] = test system: S. aureus ATCC 25923; conditions: ref Cadelis et al. [13]; cited from earlier work
# [12] = test system: P. aeruginosa ATCC 27853; conditions: cited from earlier work; remark: listed apart in the source
# [13] = test system: C. albicans ATCC 90028; assay: Antifungal MIC (CO-ADD), C. albicans; type: cell-based; conditions: Candida albicans, ATCC90028, top dose 32 µg/mL
# Summary of the method: (§2)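 MIC for C. neoformans determined by OD570–600 following a further 3 h with resazurin (0.006% final), whereas C. albicans was read directly at OD530. Both grown static in YNB broth at 2.5 × 10^3 CFU/mL final inoculum, 35 °C for 36 h, from colonies cultured on YPD agar 3 days at 30 °C.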
# [14] = test system: E. coli ATCC 25922; assay: MIC, broth dilution, E. coli; type: cell-based, Escherichia coli; conditions: Escherichia coli, ATCC25922; E. coli ATCC 25922, 18 h
# [15] = test system: K. pneumoniae ATCC 700603; assay: MIC, broth microdilution (CO-ADD), K. pneumoniae; conditions: top dose 32 µg/mL
# [16] = test system: P. aeruginosa ATCC 27853; assay: MIC, broth dilution, P. aeruginosa; type: cell-based, Pseudomonas aeruginosa; conditions: Pseudomonas aeruginosa, ATCC27853
# [17] = test system: P. aeruginosa PAO1; assay: Nitrocefin hydrolysis assay (outer membrane permeabilization); type: cell-based, Pseudomonas aeruginosa; conditions: P. aeruginosa PAO1, top dose 128 µg/mL
# Description: Outer membrane permeabilization was measured using nitrocefin as a chromogenic substrate of periplasmic β-lactamase. A total of 10 milliliters of MH broth were inoculated with 0.1 mL of an overnight culture of PAO1 bacteria and grown at 37 °C until the OD600 reached 0.5. The remaining steps were performed at room temperature. The cells were recovered by centrifugation (4000 rpm for 20 min) and washed once in 20 mM potassium phosphate buffer (pH 7.2) containing MgCl2 (1 mM). After a second centrifugation, the pellet was resuspended and adjusted to OD600 of 0.5. Then, 50 µL of the desired compound was added to 100 µL of the cell suspension to obtain a final concentration varying from 3.9 µM to 250 µM. A total of 50 microliters of nitrocefin was then added to obtain a final concentration of 50 µg/mL. Nitrocefin hydrolysis was monitored spectrophotometrically by measuring the increase in absorbance at 490 nm. The assays were performed in 96-well plates using a M200 Pro Tecan (Tecan, Männedorf, Switzerland) spectrophotometer.
# [18] = test system: P. aeruginosa PAO1; assay: Real-time growth curves, P. aeruginosa; type: cell-based, Pseudomonas aeruginosa
# [19] = test system: S. aureus ATCC 25923; assay: MIC, broth dilution, S. aureus; type: cell-based, Staphylococcus aureus
# [20] = test system: A. baumannii ATCC 19606; assay: MIC, broth microdilution (CO-ADD), A. baumannii; type: cell-based, Acinetobacter baumannii; conditions: Acinetobacter baumannii, ATCC19606, top dose 32 µg/mL
# [21] = test system: human red blood cells; assay: Hemolytic assay; type: cell-based; conditions: 10% hemolytic activity, mean n = 2
# Summary of the method: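 Compounds were applied to saline-washed human red blood cells at 0.5 × 10^8 cells/mL, 37 °C, 1 h. Lysis was measured by supernatant absorbance at 405 nm, and concentrations giving 10% and 50% haemolysis were obtained by variable-slope curve fitting.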
# [22] = Cytotoxicity assay (resazurin); type: cell-based; conditions: human, HEK293 cells, mean n = 2
# [23] = test system: MRSA ATCC 43300; assay: MIC, broth microdilution (CO-ADD), MRSA; type: cell-based, methicillin-resistant S. aureus; conditions: Staphylococcus aureus; MRSA ATCC 43300; top dose 32 µg/mL; read-out: MIC MRSA
# [24] = test system: P. aeruginosa ATCC 27853; assay: Doxycycline potentiation against P. aeruginosa; type: cell-based, Pseudomonas aeruginosa; conditions: doxycycline at 2 µg/mL (4.5 µM)
# Source text: as §1
# [25] = test system: MRSA; assay: ATP efflux (membrane disruption), MRSA; type: cell-based, methicillin-resistant S. aureus; conditions: single dose 100 µg/mL, relative to squalamine
# Description: (§3) A solution of the compound was prepared in twice-distilled water at a fixed concentration of 100 μg/mL. The different Gram-positive suspensions were prepared in MH II broth and were incubated at 37 °C. Then, 90 µL of each bacterial suspension was added to 10 µL of the compound solution and shaken for 20 s in the incubator at 37 °C. Subsequently, 50 µL of Luceferin–Luciferase reagent (Yelen, Marseille, France) was added to the mixture, and the luminescent signal was quantified with an Infinite M200 microplate reader (Tecan, Männedorf, Switzerland) for 6 readings spaced 30 s apart. The ATP concentration was quantified by internal sample addition. Squalamine (100 µg/mL) was used as the positive control to quantify the maximum level of ATP efflux and water as the negative control. This assay was performed in three independent experiments.
# [26] = test system: C. neoformans ATCC 208821; assay: Antifungal MIC (CO-ADD), C. neoformans; type: cell-based; conditions: Cryptococcus neoformans, ATCC208821, top dose 32 µg/mL
# Summary of the method: as §2
# [27] = test system: S. aureus ATCC 25923; assay: Real-time growth curves, S. aureus; type: cell-based, Staphylococcus aureus; conditions: for Concentration at which bacterial growth resumed after 2 h: S. aureus ATCC 25923, real-time growth
# Description: The solutions of the compound at the concentrations of 2, 4, and 16 µg/mL were tested each in triplicate against S. aureus ATCC 25923. Typically, in a 96-well plate were placed 10 µL of 40, 80, and 320 µg/mL stock solutions of compound, as well as 190 µL of 5 × 10^5 CFU/mL of the selected bacterial suspension in brain heart infusion (BHI) broth. Positive controls containing only 200 µL of 5 × 10^5 CFU/mL of the bacterial suspension in BHI and negative controls containing only 200 µL of BHI broth were added. The plate was incubated at 37 °C in a TECAN Spark Reader (Roche Diagnostic, Meylan, France) and the real-time bacterial growth was followed by OD590 nm measurements every 20 min for 18 h.
# [28] = test system: S. aureus ATCC 25923; assay: ATP efflux (membrane disruption), S. aureus; type: cell-based, Staphylococcus aureus; conditions: S. aureus ATCC 25923, single dose 100 µg/mL, relative to squalamine
# Description: as §3
smiles,measurement,setting,value
"O=C(NCCCNCCCCNCCCNC(=O)c1c[nH]c2ccc(Br)cc12)c1c[nH]c2ccc(Br)cc12 [Compound 3, α,ω-di-(5-bromoindole-3-carboxamido)spermine]",Hemolysis HC10,[1],>50 ^c µM
same,Erythro/Ec: concentration required to restore erythromycin activity (combination MIC),[2],100 µM
same,MIC Ab,[3],>50 ^i µM
same,IC50,[4],> 50 µM
same,MIC Ca,[5],49.5 ^i µM
same,MIC Kp,[6],>50 ^i µM
same,MIC Pa,[7]; ref Cadelis et al. [13],200 ^i µM
same,MIC Cn,[8],12.4 ^i µM
same,MIC Ec,[9],200 ^i µM
same,MIC MRSA,[10],12.4 ^i µM
same,MIC Sa,[11],4.8 ^i µM
same,Dox/Pa: concentration required to restore doxycycline activity (combination MIC),"[12]; doxycycline at 2 µg/mL (4.5 µM), P. aeruginosa ATCC 27853, ref Cadelis et al. [13]",3.125 µM
same,Dox/Pa fold-change (intrinsic MIC / combination MIC),"[12]; doxycycline at 2 µg/mL, P. aeruginosa ATCC 27853, ref Cadelis et al. [13]",64 fold
O=C(NCCCNCCCCCCNCCCNC(=O)c1c[nH]c2ccc(Br)cc12)c1c[nH]c2ccc(Br)cc12 [Compound 13b],MIC,[13],> 35 µM
same,MIC,[14],6.92 µM
same,MIC Kp,[15],>35 µM
same,Erythro/Ec fold-change (intrinsic MIC / combination MIC),[2]; E. coli,1 fold
same,Erythro/Ec: concentration required to restore erythromycin activity (combination MIC),[2],6.92 µM
same,MIC,"[16]; P. aeruginosa ATCC 27853, 18 h, read-out: MIC Pa",71 µM
same,MIC,[16]; read-out: MIC P. aeruginosa (microdilution),64 µg/mL
same,Outer membrane disruption (nitrocefin hydrolysis),[17],able to disrupt the outer membrane only at the top dose
same,Concentration at which bacterial growth resumed after 4 h,[18],35.5 μM and 32 μg/mL
same,MIC,"[19]; S. aureus ATCC 25923, 18 h, read-out: MIC Sa",2.2 µM
same,MIC,"[19]; Staphylococcus aureus, ATCC25923, S. aureus ATCC 25923, 18 h, read-out: MIC Sa",2.2 µM
same,MIC,"[19]; Staphylococcus aureus, ATCC25923, read-out: MIC S. aureus (microdilution)",2 µg/mL
same,MIC,[20],≤ 0.28 µM
same,Hemolysis HC10,[21],>35 µM
same,IC50 at 20 h,[22],> 35 µM
same,MIC,[23],≤ 0.28 µM
same,Dox/Pa fold-change (intrinsic MIC / combination MIC),[24]; P. aeruginosa ATCC 27853,21 fold
same,Dox/Pa: concentration required to restore doxycycline activity (combination MIC),"[24]; P. aeruginosa ATCC 27853, mean n = 3",3.46 µM
same,ATP release (membrane disruption),[25],more potent of the two compounds
same,MIC,[26],≤ 0.28 µM
same,Concentrations giving complete inhibition in real-time growth curves,"[27]; S. aureus ATCC 25923, 18 h",32 to 2 μg/mL and 35.5 to 2.2 μM
same,Concentration at which bacterial growth resumed after 2 h,[27],1 μg/mL and 1.1 μM
same,ATP release (membrane disruption),[28],more potent of the two compounds
"O=C(Cc1c[nH]c2ccc(Br)cc12)NCCCNCCCCCCCNCCCNC(=O)Cc1c[nH]c2ccc(Br)cc12 [Compound 19, reference compound]",Outer membrane disruption (nitrocefin hydrolysis),[17],inactive at all test doses
same,Concentration at which bacterial growth resumed after 4 h,[18],128 μg/mL and 135.5 μM
same,MIC P. aeruginosa,[7],100 μg/mL and 106 μM
same,ATP release (membrane disruption),[25],noticeably less active than the positive control squalamine
same,Combined MIC with doxycycline against P. aeruginosa,[12]; doxycycline potentiation,6.6 µM
same,Fold enhancement with doxycycline against P. aeruginosa,[12]; doxycycline potentiation,18 fold
same,Concentration at which bacterial growth resumed after 2 h,[27],8.5 μM and 8 μg/mL
same,ATP release (membrane disruption),[28],noticeably less active than the positive control squalamine
